Measurements taken from patent publication US7015228B2, “4-amino-2-(2-pyridyl)pyrimidines as microbicidal active substances” (Ciba Specialty Chemicals Corporation, priority 2001, dated 2006).
In brackets after ≈: the same amount, converted by molar mass.

Tests used:
Type in all cases: cell-based
[1] = system: Aspergillus niger ATCC 6275; assay: Minimum inhibitory concentration (MIC), further microorganisms; settings: Table 8; * = significant inhibition of growth, but not complete inhibition
Method in brief: (§1)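 Broth microdilution in DMSO, 1:2 series; inocula adjusted to 1–5×10^6 CFU/ml then diluted 1:100 in CASO broth (bacteria, yeast) or Sabouraud 2% glucose broth (mould). Incubation 48 h at 37° C or 5 days at 28° C; MIC = lowest concentration giving ≦20% growth versus control by OD 620 nm.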

[2] = system: Staphylococcus aureus ATCC 9144; assay: as above; settings: Table 8; * = significant inhibition of growth, but not complete inhibition
Method in brief: as §1

[3] = system: Enterococcus hirae ATCC 10541; assay: as above; settings: Table 8; * = significant inhibition of growth, but not complete inhibition
Method in brief: as §1

[4] = system: Klebsiella pneumonia ATCC 4352; assay: as above; settings: Table 8; * = significant inhibition of growth, but not complete inhibition
Method in brief: as §1

[5] = system: Salmonella choleraesuis ATCC 10708; assay: as above; settings: Table 8
Method in brief: as §1

[6] = system: Micrococcus luteus ATCC 9341; assay: as above; settings: Table 8; * = significant inhibition of growth, but not complete inhibition
Method in brief: as §1

[7] = system: Pseudomonas aeruginosa CIP A-22; assay: as above; settings: Table 8
Method in brief: as §1

[8] = system: Epidermophyton floccosum DSM 10709; assay: as above; settings: Table 8; * = significant inhibition of growth, but not complete inhibition
Method in brief: as §1

[9] = system: S. epidermidis ATCC 12228; assay: as above; settings: Table 8; * = significant inhibition of growth, but not complete inhibition
Method in brief: as §1

[10] = system: Trichophyton mentagrophytes ATCC 9533; assay: as above; settings: Table 8; * = significant inhibition of growth, but not complete inhibition
Method in brief: as §1

[11] = system: Candida albicans ATCC 10231; assay: as above; settings: Table 8; * = significant inhibition of growth, but not complete inhibition
Method in brief: as §1

[12] = system: Staphylococcus hominis DMS 20328; assay: Minimum inhibitory concentration (MIC) in microtitre plates; settings: Table 7; 48 hours at 37° C.; MIC = ≦20% growth compared to control
Method in brief: (§2)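 Compounds in DMSO, 1:2 dilution series; bacteria at 1–5×10^6 CFU/ml diluted 1:100 in CASO broth. Incubation 48 h at 37° C, growth read as OD 620 nm. MIC is the lowest concentration giving ≤20% growth relative to control; duplicates.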

[13] = system: Escherichia coli NCTC 8196; assay: as above
Method in brief: as §2

Minimum inhibitory concentration (MIC) Aspergillus niger ATCC 6275 [1]: >60 µg/mL | Minimum inhibitory concentration (MIC) Staphylococcus aureus ATCC 9144 [2]: 7.5 µg/mL (≈ 17.7 µM) | Minimum inhibitory concentration (MIC) Enterococcus hirae ATCC 10541 [3]: 3.75 µg/mL (≈ 8.83 µM) | Minimum inhibitory concentration (MIC) Klebsiella pneumonia ATCC 4352 [4]: >60 µg/mL | Minimum inhibitory concentration (MIC) Micrococcus luteus ATCC 9341 [6]: 1.0 µg/mL (≈ 2.35 µM) | Minimum inhibitory concentration (MIC) Pseudomonas aeruginosa CIP A-22 [7]: >60 µg/mL | Minimum inhibitory concentration (MIC) Epidermophyton floccosum DSM 10709 [8]: *60 μg/mL | Minimum inhibitory concentration (MIC) S. epidermidis ATCC 12228 [9]: 3.75 µg/mL (≈ 8.83 µM) | Minimum inhibitory concentration (MIC) Trichophyton mentagrophytes ATCC 9533 [10]: >60 µg/mL | Minimum inhibitory concentration (MIC) Candida albicans ATCC 10231 [11]: >60 µg/mL | Minimum inhibitory concentration (MIC) S. hominis [12]: 15 µg/mL (≈ 35.3 µM) | Minimum inhibitory concentration (MIC) E. coli ([13]; Table 7, 48 hours at 37° C., MIC = ≦20% growth compared to control): >120 µg/mL | Minimum inhibitory concentration (MIC) E. coli NCTC 8196 ([13]; Table 8, * = significant inhibition of growth, but not complete inhibition): >60 µg/mL
SMILES: CCCCCCCCCCCCCCCNc1cc(C(C)C)nc(-c2ccccn2)n1 [compound 99]
Minimum inhibitory concentration (MIC) Salmonella choleraesuis ATCC 10708 [5]: >60 µg/mL
